Assay results as given in ChEMBL document CHEMBL1124016, “Antihypertensive activity in a series of 1-piperazino-3-phenylindans with potent 5-HT2-antagonistic activity” (J Med Chem, 1988).

Legend:
Rattus norvegicus [1] = assay: Inhibition of 5-HT induced pressor response in pithed rats, after intravenous administration of 0.02 mg/kg; assay type: functional
Rattus norvegicus [2] = assay: Inhibition of phenylephrine induced pressor response in pithed rats (following i.v. administration of […]); assay type: functional; conditions: route intravenous
Rattus norvegicus [3] = assay: Percent reduction of blood pressure in spontaneously hypertensive rat after 10 min at intraperitoneal administration of 5 mg/kg; assay type: functional
[4] = molecular target: Serotonin 2 (5-HT2) receptor (Rattus norvegicus, UniProt P30994+P08909+P14842); assay: Inhibition of [3H]spiperone binding to 5-hydroxytryptamine 2 receptor from rat cortical membranes; assay type: cell membranes, Membrane
Rattus norvegicus [5] = organism: Rattus norvegicus; assay: Inhibition of L-5-HTP (L-5-hydroxytryptophan) induced head twitches in rat; assay type: functional
D(2) dopamine receptor = D(2) dopamine receptor (Rattus norvegicus, UniProt P61169); assay: Inhibition of [3H]spiperone binding to Dopamine receptor D2 from rat striatal membranes; assay type: cell membranes, Membrane
Sequence of D(2) dopamine receptor (P61169 whole entry): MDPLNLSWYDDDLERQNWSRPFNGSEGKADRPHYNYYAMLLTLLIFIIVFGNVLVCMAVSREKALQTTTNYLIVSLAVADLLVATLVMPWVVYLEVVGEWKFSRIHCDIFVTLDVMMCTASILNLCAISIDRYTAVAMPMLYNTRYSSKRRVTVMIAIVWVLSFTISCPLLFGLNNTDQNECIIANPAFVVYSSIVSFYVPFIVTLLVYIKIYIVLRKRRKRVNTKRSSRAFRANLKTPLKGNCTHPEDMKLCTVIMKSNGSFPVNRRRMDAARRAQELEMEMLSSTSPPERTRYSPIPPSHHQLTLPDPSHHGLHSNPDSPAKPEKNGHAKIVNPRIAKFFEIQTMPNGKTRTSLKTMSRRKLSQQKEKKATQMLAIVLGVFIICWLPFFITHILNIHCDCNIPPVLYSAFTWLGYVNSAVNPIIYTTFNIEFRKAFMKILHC

Mus musculus = organism: Mus musculus; assay: Inhibition of methyl phenidate induced stereotyped gnawing in mice; assay type: functional
[6] = molecular target: T1, Adrenergic receptor alpha-1 (Rattus norvegicus, UniProt P15823+P23944+P43140); assay: Inhibition of [3H]prazosin binding to alpha-1 adrenergic receptor from rat cortical membranes; assay type: cell membranes, Membrane
T1 sequence (P15823 whole entry): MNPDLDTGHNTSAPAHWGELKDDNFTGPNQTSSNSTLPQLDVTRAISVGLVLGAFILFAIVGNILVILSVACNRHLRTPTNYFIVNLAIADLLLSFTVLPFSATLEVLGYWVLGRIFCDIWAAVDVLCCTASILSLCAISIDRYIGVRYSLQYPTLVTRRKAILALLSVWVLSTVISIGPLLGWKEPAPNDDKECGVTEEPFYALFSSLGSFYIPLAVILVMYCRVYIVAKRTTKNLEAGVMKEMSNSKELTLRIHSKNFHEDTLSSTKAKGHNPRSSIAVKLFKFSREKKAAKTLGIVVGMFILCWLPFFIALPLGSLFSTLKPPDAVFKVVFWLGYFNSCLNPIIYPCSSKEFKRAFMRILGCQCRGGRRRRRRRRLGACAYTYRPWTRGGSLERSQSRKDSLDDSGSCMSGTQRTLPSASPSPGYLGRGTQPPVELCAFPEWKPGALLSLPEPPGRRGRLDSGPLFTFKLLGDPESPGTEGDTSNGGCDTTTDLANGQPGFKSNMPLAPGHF
T1 sequence (P23944 whole entry): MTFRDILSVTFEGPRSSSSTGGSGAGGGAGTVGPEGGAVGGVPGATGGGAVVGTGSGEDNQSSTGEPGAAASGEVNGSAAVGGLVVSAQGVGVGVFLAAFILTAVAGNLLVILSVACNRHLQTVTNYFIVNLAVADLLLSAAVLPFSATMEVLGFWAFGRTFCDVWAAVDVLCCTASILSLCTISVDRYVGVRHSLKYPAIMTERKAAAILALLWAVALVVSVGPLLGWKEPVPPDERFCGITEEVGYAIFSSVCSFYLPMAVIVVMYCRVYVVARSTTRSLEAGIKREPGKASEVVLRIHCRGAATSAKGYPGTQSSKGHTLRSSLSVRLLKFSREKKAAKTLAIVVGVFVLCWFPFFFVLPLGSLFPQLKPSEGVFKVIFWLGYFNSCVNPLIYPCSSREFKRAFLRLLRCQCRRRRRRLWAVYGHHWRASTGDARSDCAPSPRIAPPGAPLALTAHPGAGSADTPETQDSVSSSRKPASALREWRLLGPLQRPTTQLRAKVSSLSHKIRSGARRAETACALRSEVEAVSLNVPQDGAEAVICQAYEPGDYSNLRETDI
T1 sequence (P43140 whole entry): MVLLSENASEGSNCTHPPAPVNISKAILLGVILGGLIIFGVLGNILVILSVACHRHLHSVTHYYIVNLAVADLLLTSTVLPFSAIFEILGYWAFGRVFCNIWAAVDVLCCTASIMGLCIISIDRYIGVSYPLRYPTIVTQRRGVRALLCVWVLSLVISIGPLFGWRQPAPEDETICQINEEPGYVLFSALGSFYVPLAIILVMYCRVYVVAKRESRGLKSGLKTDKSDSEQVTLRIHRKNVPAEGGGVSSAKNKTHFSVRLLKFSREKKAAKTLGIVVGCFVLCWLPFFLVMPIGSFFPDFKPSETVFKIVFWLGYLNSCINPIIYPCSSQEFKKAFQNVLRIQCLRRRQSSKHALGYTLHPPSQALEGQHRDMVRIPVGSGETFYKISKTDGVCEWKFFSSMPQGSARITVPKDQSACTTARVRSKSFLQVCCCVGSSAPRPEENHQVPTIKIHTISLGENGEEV

Rattus norvegicus [7] = assay: Inhibition of 5-HT induced pressor response in pithed rats, after intravenous administration; assay type: functional
Rattus norvegicus [8] = assay: Inhibition of 5-HT induced pressor response in pithed rats, after intravenous administration, activity is expressed as ED50; assay type: functional
[9] = Rattus norvegicus, read-out: ED50

Structure (SMILES)	Change (Rattus norvegicus [1]) [%]	Change (Rattus norvegicus [2]) [%]	Reduction (Rattus norvegicus [3]) [%]	IC50 [4] [nM]	ED50 (Rattus norvegicus [5]; [9]) [µmol/kg]	IC50 (D(2) dopamine receptor) [nM]	ED50 (Mus musculus) [µmol/kg]	IC50 [6] [nM]	ED50 (Rattus norvegicus [7]) [µmol/kg]	ED50 (Rattus norvegicus [8]) [µmol/kg]	ED50 (Rattus norvegicus [5]) [µmol/kg]
O=C1NCCN1CCN1CCN([C@H]2C[C@H](c3ccccc3)c3ccccc32)CC1	-11	0	-7								
Cl.Cl.OC1=NCCN1CCN1CCN(C2CC(c3ccc(Cl)cc3)c3ccccc32)CC1 (stereo unspecified)	13	15	3	37	40	800	> 80				
Cl.Cl.O=C1CCCN1CCN1CCN(C2CC(c3ccc(F)cc3)c3ccc(F)cc32)CC1 (stereo unspecified)			0	12		85		36			
O=C(O)/C=C\C(=O)O.O=C(O)/C=C\C(=O)O.O=C1NCCCN1CCN1CCN(C2CC(c3ccc(F)cc3)c3ccc(F)cc32)CC1 (stereo unspecified)			0	11			> 59				
COc1ccc(C2CC(N3CCN(CCN4CCNC4=O)CC3)c3ccccc32)cc1 (stereo unspecified)	-19	69	3	250	> 48	15000	> 95	1400			
CCN1CCN(CCN2CCN(C3CC(c4ccc(F)cc4)c4ccc(F)cc43)CC2)C1=O.Cl.Cl (stereo unspecified)			4	4.8		25	> 75	34			
O=C1NCCN1CCN1CCN(C(=O)c2ccccc2)CC1			6	4800	> 8.2	> 1000	> 132				
CN1CCN(CCN2CCN(C3CC(c4ccc(F)cc4)c4ccccc43)CC2)C1=O.Cl.Cl.O (stereo unspecified)			-6	13			> 80				
Cc1nc2sccn2c(=O)c1CCN1CCC(=C(c2ccc(F)cc2)c2ccc(F)cc2)CC1 [RITANSERIN]	-95	16	10		1.2		> 84	47			
CN1CCN(C2CC(c3ccc(F)cc3)c3ccc(F)cc32)CC1 (stereo unspecified)	-85	-19	-15	7.7	0.079		11	22			
O=C(O)/C=C\C(=O)O.O=C(O)/C=C\C(=O)O.O=C1NCCN1CCN1CCN([C@@H]2C[C@@H](c3ccccc3F)c3ccccc32)CC1	-18	13	-3		17		> 62				
O=C(c1ccc(F)cc1)C1CCN(CCn2c(=O)[nH]c3ccccc3c2=O)CC1 [KETANSERIN]	-62	-14	-32		0.79	1800	> 101	15	0.024	3.2	
O=C1NCCN1CCN1CCN(Cc2ccccc2)CC1			15	> 1000	> 4.3	> 1000	> 139	> 10000			
COc1cc2nc(N3CCN(C(=O)c4ccco4)CC3)nc(N)c2cc1OC [PRAZOSIN]	0	-100	-32		0.45		> 95		> 12	0.0095	
Cl.Cl.Oc1nc2ccccc2n1CCN1CCN(C2CC(c3ccc(F)cc3)c3ccc(F)cc32)CC1 (stereo unspecified)			-15	9.4		25	> 72	160			
O=C(O)/C=C\C(=O)O.O=C(O)/C=C\C(=O)O.O=C1NCCN1CCN1CCN([C@H]2C[C@H](c3ccccc3F)c3ccccc32)CC1	0	3	-8		> 31		> 62				
Fc1ccc(C2CC(N3CCN(CCN4CCN=C4S)CC3)c3ccccc32)cc1.O=C(O)/C=C\C(=O)O.O=C(O)/C=C\C(=O)O (stereo unspecified)			-18	3.3	0.43		> 61				
O=C(O)/C=C\C(=O)O.O=C(O)/C=C\C(=O)O.O=C1NCCN1CCN1CCN(C2CC(c3ccccc3)c3ccccc32)CC1 (stereo unspecified)				12		1900	> 64				26
Fc1ccc(C2CC(N3CCNCC3)c3ccccc32)cc1 (stereo unspecified)	-13	7	10	30	2.5	1900	> 108	100			
Fc1ccc([C@@H]2C[C@@H](N3CCN(CCN4CCN=C4S)CC3)c3cc(F)ccc32)cc1.O=C(O)/C=C\C(=O)O.O=C(O)/C=C\C(=O)O			-32	2.2		29		13			
O=C1NCCN1CCN1CCN(C(=O)c2ccc(F)cc2)CC1			11	58000	1.8	> 1000	> 125				
Fc1ccc(C2CC(N3CCN(CCN4CCCN=C4S)CC3)c3cc(F)ccc32)cc1.O=C(O)/C=C\C(=O)O.O=C(O)/C=C\C(=O)O (stereo unspecified)			-13	7.5		51	23				
Cl.Cl.O=C1OCCN1CCCN1CCN(C2CC(c3ccc(F)cc3)c3ccc(F)cc32)CC1 (stereo unspecified)	-32		-12	22		30					
